From PMC7181660, “A novel specific PERK activator reduces toxicity and extends survival in Huntington's disease models” (Scientific Reports, 2020)

Tests used:
[1] = system: PERK-P; assay: PERK phosphorylation shift by immunoblot in MEF cells; format: cell-based; details: 3 hours, Thap 2 μg/ml
[2] = system: CHOP mRNA; assay: CHOP mRNA by qPCR in STHdh^Q7/7 and STHdh^Q111/111 cells; format: cell-based, murine; details: both cell types, qPCR vs GAPDH
Description: Total cell RNA was extracted with TRIzol reagent (Invitrogen) according to the manufacturer's instructions. Reverse transcription (RT) was performed with QuantaBio qScript cDNA synthesis kit. Real-time qPCR was carried out using a CFX Connect Real-Time PCR Detection System (BioRad) and the amplifications were done using the SYBR Green PCR Master Mix (pcrbio). Reactions were run in triplicates in three independent experiments. Housekeeping gene GAPDH was used as an internal control to normalize the variability of expression levels.

[3] = biological target: EIF2AK4 (GCN2) (Homo sapiens, UniProt Q9P2K8); assay: In vitro HotSpot kinase assay on GCN2; format: biochemical; details: plateau considered reached at 10 µM; read-out: EC50 of GCN2 activation
Description: In vitro kinase assays with purified components and full kinase panel analysis was done at Reaction Biology Corp. (Malvern, PA, USA) using the HotSpot Kinase Assay. Reactions were performed for 20 min at room temp. using ^33P-ATP (Specific activity 10 μCi/μl) with 1 μM total ATP, 20 μM substrate and kinases in the nanomolar range in 20 mM Hepes (pH 7.5), 10 mM MgCl2, 1 mM EGTA, 0.02% Brij35, 0.02 mg/ml BSA, 0.1 mM Na3VO4, 2 mM DTT, 1% DMSO and other required factors depending on the assayed kinase. […]
was calculated from the data in Fig. 3. Note that for the calculation for GCN2, we considered […]
Suppl. Fig. S3. Modulation of PERK by A4. A4 was tested for its effect on isolated PERK in vitro, showing a weak activating effect in the nanomolar range. (performed at Reaction Biology Corp. using the HotSpot Kinase Assay).
(1 picture or pasted object on this page, not shown here)

[4] = biological target: EIF2AK2 (PKR) (Homo sapiens, UniProt P19525); assay: In vitro HotSpot kinase assay on PKR; format: biochemical
Description: In vitro kinase assays with purified components and full kinase panel analysis was done at Reaction Biology Corp. (Malvern, PA, USA) using the HotSpot Kinase Assay. Reactions were performed for 20 min at room temp. using ^33P-ATP (Specific activity 10 μCi/μl) with 1 μM total ATP, 20 μM substrate and kinases in the nanomolar range in 20 mM Hepes (pH 7.5), 10 mM MgCl2, 1 mM EGTA, 0.02% Brij35, 0.02 mg/ml BSA, 0.1 mM Na3VO4, 2 mM DTT, 1% DMSO and other required factors depending on the assayed kinase.

[5] = system: B6 wild type mice; assay: Toxicity study, 2 weeks continuous subcutaneous Alzet pump delivery; format: in vivo; details: 6 mg/kg, 2 weeks continuous subcutaneous delivery
Description: (§1) Alzet pumps model 1004 (Alzet, USA), with a rate of 0.11 µl/hour and 28 days effective compound delivery was used. MK-28 compound was dissolved in 1:1 DMSO/PEG400 and prepared to delivery subcutaneously 6 mg/kg MK-28 for toxicity studies (n = 8) or 1 mg/kg for therapeutic evaluation in R6/2 mice (n = 72). For toxicity studies mice receiving six times the therapeutic dose of MK-28 or vehicle were weighed every two days for two consecutive weeks. […]. Alzet pumps were implanted in 4 weeks old mice and MK-28 was administered at 1 mg/kg with continuous dosing for 28 days. […]

[6] = Body weight during therapeutic study (Alzet minipumps); format: in vivo, mice; details: 1 mg/kg subcutaneous minipump, 7 weeks after pump implantation
Description: as §1

[7] = system: R6/2 HD mouse model; assay: Survival of R6/2 mice; format: in vivo
Description: All experimental procedures were approved by and conducted in strict compliance with the Institutional Animal Care and Use Committee of Tel Aviv University. Mice were kept in a 12/12-hour light/dark cycle with food and water ad libitum. […]. At three weeks mice were assessed for CAG repeat size using the following primer set: 5’-[…]-3′ and 5′-[…] G-3′. Following Jackson laboratories guidelines, wild type (WT) and TG littermates were kept combined in the same minimally-enriched cages (with cardboard rolls and gauze pads), and after week 8 water and mushed food were placed at the ground level for all the cages. Male mice treatment groups were coded and remained blind to the observers throughout the experiment. Power calculations determined that 16 mice per group was the minimum required to see at least a 20% increase (alpha 0.05, beta 0.2, power 80%) in motor performance and survival of R6/2 mice with MK-28 subcutaneous delivery compared to vehicle. Multiple endpoints were prospectively selected, consistent with the analyses we here report. Data collection was ended before signs of animal suffering or inability to thrive appear.
as §1

[8] = R6/2 TG, 1 mg/kg subcutaneous 28 days

EIF2AK4 (GCN2), sequence (Q9P2K8 whole entry): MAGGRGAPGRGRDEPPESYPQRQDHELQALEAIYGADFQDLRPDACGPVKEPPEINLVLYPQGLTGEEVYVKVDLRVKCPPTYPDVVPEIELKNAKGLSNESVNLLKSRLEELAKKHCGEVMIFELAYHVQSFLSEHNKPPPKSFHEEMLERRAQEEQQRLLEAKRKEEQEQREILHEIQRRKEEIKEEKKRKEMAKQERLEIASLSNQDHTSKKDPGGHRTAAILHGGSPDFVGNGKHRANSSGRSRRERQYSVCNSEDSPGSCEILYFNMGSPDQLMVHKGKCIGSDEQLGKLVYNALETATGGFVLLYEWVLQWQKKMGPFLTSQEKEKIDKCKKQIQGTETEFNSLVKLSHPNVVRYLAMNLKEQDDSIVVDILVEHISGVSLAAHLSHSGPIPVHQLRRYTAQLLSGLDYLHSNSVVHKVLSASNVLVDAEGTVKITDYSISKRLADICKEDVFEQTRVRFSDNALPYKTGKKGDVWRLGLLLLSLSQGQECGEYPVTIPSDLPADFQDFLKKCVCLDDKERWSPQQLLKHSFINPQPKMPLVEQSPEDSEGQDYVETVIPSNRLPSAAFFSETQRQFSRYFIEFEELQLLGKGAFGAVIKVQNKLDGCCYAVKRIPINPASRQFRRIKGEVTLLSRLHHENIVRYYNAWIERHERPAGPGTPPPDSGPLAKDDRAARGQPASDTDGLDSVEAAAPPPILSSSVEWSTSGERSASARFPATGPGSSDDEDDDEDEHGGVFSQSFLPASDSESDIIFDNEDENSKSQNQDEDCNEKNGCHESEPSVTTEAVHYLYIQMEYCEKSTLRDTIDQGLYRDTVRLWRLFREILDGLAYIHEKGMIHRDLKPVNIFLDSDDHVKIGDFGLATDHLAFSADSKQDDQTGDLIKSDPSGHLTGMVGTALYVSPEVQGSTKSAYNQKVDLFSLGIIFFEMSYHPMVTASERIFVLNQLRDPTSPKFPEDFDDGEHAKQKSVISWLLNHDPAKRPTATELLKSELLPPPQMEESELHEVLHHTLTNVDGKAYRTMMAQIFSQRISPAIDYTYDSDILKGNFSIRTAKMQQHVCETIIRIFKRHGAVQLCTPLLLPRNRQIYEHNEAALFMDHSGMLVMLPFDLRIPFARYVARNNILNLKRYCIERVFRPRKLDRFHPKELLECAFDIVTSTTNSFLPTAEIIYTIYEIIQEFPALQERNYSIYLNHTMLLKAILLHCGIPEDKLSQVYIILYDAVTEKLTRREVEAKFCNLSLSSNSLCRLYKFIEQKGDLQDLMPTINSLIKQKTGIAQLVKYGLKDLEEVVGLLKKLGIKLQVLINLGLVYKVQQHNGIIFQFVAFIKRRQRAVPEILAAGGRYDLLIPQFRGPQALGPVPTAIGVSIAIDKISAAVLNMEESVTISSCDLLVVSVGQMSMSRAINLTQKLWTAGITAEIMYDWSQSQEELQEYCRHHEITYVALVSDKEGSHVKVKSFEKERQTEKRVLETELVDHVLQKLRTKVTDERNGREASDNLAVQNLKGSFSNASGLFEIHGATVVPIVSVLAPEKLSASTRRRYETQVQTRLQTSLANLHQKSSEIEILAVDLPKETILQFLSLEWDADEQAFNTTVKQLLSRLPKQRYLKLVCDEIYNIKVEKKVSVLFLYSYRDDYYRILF
EIF2AK2 (PKR), sequence (P19525 whole entry): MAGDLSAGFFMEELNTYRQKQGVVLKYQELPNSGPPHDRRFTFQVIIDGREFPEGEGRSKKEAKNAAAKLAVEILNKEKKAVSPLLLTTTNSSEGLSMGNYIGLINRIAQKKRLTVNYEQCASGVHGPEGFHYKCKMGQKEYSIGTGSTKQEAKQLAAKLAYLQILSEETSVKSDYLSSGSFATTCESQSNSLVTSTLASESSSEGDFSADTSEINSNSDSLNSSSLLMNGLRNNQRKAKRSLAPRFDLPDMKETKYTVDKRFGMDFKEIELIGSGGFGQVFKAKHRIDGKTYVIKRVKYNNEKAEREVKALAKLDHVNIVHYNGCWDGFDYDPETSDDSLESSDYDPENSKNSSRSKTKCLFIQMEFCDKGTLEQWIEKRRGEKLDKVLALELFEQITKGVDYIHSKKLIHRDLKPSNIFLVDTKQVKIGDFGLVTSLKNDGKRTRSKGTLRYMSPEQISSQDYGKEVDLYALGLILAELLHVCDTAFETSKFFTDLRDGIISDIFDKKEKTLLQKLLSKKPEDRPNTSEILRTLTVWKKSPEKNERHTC

SMILES: CN(/N=C\c1ccc(O)c(O)c1)c1nc(-c2ccccc2)cc(-c2ccccc2)n1 [MK-28]
- PERK migration shift (PERK-P) [1]: shift of part of the PERK population to a slower migration
- increase of CHOP mRNA levels [2]: up to 10 fold
- EC50 [3]: 3.5 µM
- effect on EIF2AK2 (PKR) activity [4]: little or no effect
- toxic effects [5]: No toxic effects
- weight, MK-28 vs vehicle [6]: no significant differences
- extension of median survival and death initiation ([7]; 28-day treatment in young R6/2 mice): 10%
- survival curve ratio (Gehan-Breslow-Wilcoxon test) ([7]; 95% CI 0.7726 to 4.611): 1.887
- delay of death initiation [7, 8]: 10 days
- increase of median survival compared to controls [7, 8]: 8 days
- median survival [7, 8]: 97 days
